Assay results taken from EP4389749A1, “SUBSTITUTED 3,7-DIHYDRO-1H-PURINE-2,6-DIONES AND USE THEREOF” (invIOs GmbH, priority 2022, dated 2024).

Key:
CD4+ T-cells = assay: Immunostimulation assay with anti-CD3/28 stimulated T-cells, CD69 expression by flow cytometry; assay type: cell-based, human; settings: T-cell; purified human CD4+ and CD8+ T-cells, 1 µg/ml anti-CD3, 1 µg/ml anti-CD28, 16 hours, surface FACS; read-out: EC50 CD4+
Procedure: (§1) Selection of potent compounds based on structure activity relation (SAR) using human, anti-CD3/28 stimulated T-cells. Enhanced activation of stimulated T-cells is measured by CD69 expression by flowcytometry.
(§2) White blood cell enriched buffy coats were ordered from the Austrian red cross, diluted with PBS to a total volume of 480 ml, 30 ml transferred to 50ml falcons and 11 ml lymphoprep added. Cell suspensions were centrifuged for 20 min at 2200 rpm and the PBMC containing layer transferred, three times washed with PBS and counted.
(§3) 10^7 PBMCs were magnetically labeled with CD4 and CD8 microbeads according to manufacturer's instructions and separated using autoMACS device. For dose response experiments with purified CD4+CD8+ T-cells 80000 cells were seeded per 96-well flat bottom cell culture dish.
(§4) 10 mM compounds of the invention stocks were further diluted using DMSO and equal amounts transferred to T-cell containing 96-wells. Final concentrations tested were: 30 µM, 10 µM, 3 µM, 1 µM, 0.3 µM, 0.1 µM, 0.03 µM, 0.01 µM, 0.003 µM and 0.001 µM.
(§5) For the stimulation assays 80.000 purified CD4+ and CD8+ T-cells were seeded per 96-well and incubated with 1 µg/ml anti-CD3, 1 µg/ml anti-CD28 and compounds of the invention ranging from 0.001 µM to 30 µM. DMSO only wells served as control to determine minimal T-cell activation upon stimulation and CD3/28 coupled Dynabeads were used to determine the maximal activation of T-cells. Cells were cultured for 16 hours in a humidified incubator at 37 °C and 5 % CO2.
(§6) T-cells were stained for surface antigens (anti-CD4 and anti-CD8) and cell activation markers (anti-CD25 and anti-CD69). Additionally, a fixable viability dye was used to stain viable cells. Staining was performed for 15 minutes and cells analyzed using a Fortessa flow cytometer and FlowJo Software. EC50s were calculated using GraphPad Prism® and a variable slope model (agonist vs. response - variable slope).

CD8+ T-cells = assay: as above; assay type: cell-based, human; settings: T-cell; purified human CD4+ and CD8+ T-cells, 1 µg/ml anti-CD3, 1 µg/ml anti-CD28, 16 hours, surface FACS; read-out: EC50 CD8+
Procedure: as §1, §2, §3, §4, §5, §6

Compound | EC50 (CD4+ T-cells) | EC50 (CD8+ T-cells)
COc1cc(-c2nc3c(c(=O)[nH]c(=O)n3CC(O)C(F)F)n2C)ccc1OCc1ccc(C(F)F)cc1 (stereo not shown) [Compound 79, 3-(3,3-difluoro-2-hydroxypropyl)-8-(4-((4-(difluoromethyl)benzyl)oxy)-3-methoxyphenyl)-7-methyl-3,7-dihydro-1H-purine-2,6-dione] | 100 to 500 nM | 100 to 500 nM
Cc1ccc(COc2ccc(-c3nc4c(c(=O)[nH]c(=O)n4CC(O)C(F)F)n3C)cc2F)cc1 (stereo not shown) [Compound 80, 3-(3,3-difluoro-2-hydroxypropyl)-8-(3-fluoro-4-((4-methylbenzyl)oxy)phenyl)-7-methyl-3,7-dihydro-1H-purine-2,6-dione] | < 100 nM | < 100 nM
CC(O)Cn1c(=O)[nH]c(=O)c2c1nc(-c1ccc(Oc3ccc(Cl)cc3)c(OC(F)F)c1)n2C (stereo not shown) [Compound 81, 8-(4-(4-chlorophenoxy)-3-(difluoromethoxy)phenyl)-3-(2-hydroxypropyl)-7-methyl-3,7-dihydro-1H-purine-2,6-dione] | 100 to 500 nM | < 100 nM
COc1cc(-c2nc3c(c(=O)[nH]c(=O)n3CC(O)C(F)F)n2C)ccc1OCc1ccc(OC(F)F)cc1 (stereo not shown) [Compound 83, 3-(3,3-difluoro-2-hydroxypropyl)-8-(4-((4-(difluoromethoxy)benzyl)oxy)-3-methoxyphenyl)-7-methyl-3,7-dihydro-1H-purine-2,6-dione] | < 100 nM | < 100 nM
COc1cc(-c2nc3c(c(=O)[nH]c(=O)n3CC(O)C(F)F)n2C)ccc1OCc1ccc(F)cc1 (stereo not shown) [Compound 84, 3-(3,3-difluoro-2-hydroxypropyl)-8-(4-((4-fluorobenzyl)oxy)-3-methoxyphenyl)-7-methyl-3,7-dihydro-1H-purine-2,6-dione] | 100 to 500 nM | < 100 nM
CC(O)Cn1c(=O)[nH]c(=O)c2c1nc(-c1ccc(OCc3ccc(F)c(F)c3)c(F)c1)n2C (stereo not shown) [Compound 92, 8-(4-((3,4-difluorobenzyl)oxy)-3-fluorophenyl)-3-(2-hydroxypropyl)-7-methyl-3,7-dihydro-1H-purine-2,6-dione] | 1000 to 5000 nM | 1000 to 5000 nM
CC(O)Cn1c(=O)[nH]c(=O)c2c1nc(-c1ccc(OCc3ccc(Cl)c(F)c3)c(F)c1)n2C (stereo not shown) [Compound 93, 8-(4-((4-chloro-3-fluorobenzyl)oxy)-3-fluorophenyl)-3-(2-hydroxypropyl)-7-methyl-3,7-dihydro-1H-purine-2,6-dione] | 1000 to 5000 nM | 500 to 1000 nM
COc1cc(-c2nc3c(c(=O)[nH]c(=O)n3CC(O)CO)n2C)ccc1OCc1ccc(C)cc1 (stereo not shown) [Compound 94, 3-(2,3-dihydroxypropyl)-8-(3-methoxy-4-((4-methylbenzyl)oxy)phenyl)-7-methyl-3,7-dihydro-1H-purine-2,6-dione] | 1000 to 5000 nM | 1000 to 5000 nM
Cc1ccc(COc2ccc(-c3nc4c(c(=O)[nH]c(=O)n4CC(O)CO)n3C)cc2F)cc1 (stereo not shown) [Compound 95, 3-(2,3-dihydroxypropyl)-8-(3-fluoro-4-((4-methylbenzyl)oxy)phenyl)-7-methyl-3,7-dihydro-1H-purine-2,6-dione] | 1000 to 5000 nM | 1000 to 5000 nM
COc1cc(-c2nc3c(c(=O)[nH]c(=O)n3CC(C)O)n2C)ccc1OCc1ccc(F)c(Cl)c1 (stereo not shown) [Compound 99, 8-(4-((3-chloro-4-fluorobenzyl)oxy)-3-methoxyphenyl)-3-(2-hydroxypropyl)-7-methyl-3,7-dihydro-1H-purine-2,6-dione] | 100 to 500 nM | 100 to 500 nM
CC(CO)Cn1c(=O)[nH]c(=O)c2c1nc(-c1ccc(Oc3ccc(OC(F)(F)F)cc3)cc1)n2C (stereo not shown) [Compound 100, 3-(3-hydroxy-2-methylpropyl)-7-methyl-8-(4-(4-(trifluoromethoxy)phenoxy)phenyl)-3,7-dihydro-1H-purine-2,6-dione] | 100 to 500 nM | 100 to 500 nM
COc1cc(-c2nc3c(c(=O)[nH]c(=O)n3CC(C)O)n2C)ccc1OCc1cccc2ccncc12 (stereo not shown) [Compound 101, 3-(2-hydroxypropyl)-8-(4-(isoquinolin-8-ylmethoxy)-3-methoxyphenyl)-7-methyl-3,7-dihydro-1H-purine-2,6-dione] | 100 to 500 nM | 100 to 500 nM
Cc1ccc(COc2ccc(-c3nc4c(c(=O)[nH]c(=O)n4CC(O)C(F)(F)F)n3C)cc2F)cc1 (stereo not shown) [Compound 102, 8-(3-fluoro-4-((4-methylbenzyl)oxy)phenyl)-7-methyl-3-(3,3,3-trifluoro-2-hydroxypropyl)-3,7-dihydro-1H-purine-2,6-dione] | < 100 nM | 100 to 500 nM
COc1cc(-c2nc3c(c(=O)[nH]c(=O)n3CC(C)O)n2C)ccc1OCc1cccc2ncccc12 (stereo not shown) [Compound 113, 3-(2-hydroxypropyl)-8-(3-methoxy-4-(quinolin-5-ylmethoxy)phenyl)-7-methyl-3,7-dihydro-1H-purine-2,6-dione] | 500 to 1000 nM | 1000 to 5000 nM

Next, values leading:

EC50 (CD4+ T-cells) | EC50 (CD8+ T-cells) | Compound
500 to 1000 nM | 100 to 500 nM | CC(O)Cn1c(=O)[nH]c(=O)c2c1nc(-c1ccc(OCc3ccccc3)cc1)n2C (stereo not shown) [Compound 78, 8-(4-(benzyloxy)phenyl)-3-(2-hydroxypropyl)-7-methyl-3,7-dihydro-1H-purine-2,6-dione]
100 to 500 nM | 100 to 500 nM | COc1cc(-c2nc3c(c(=O)[nH]c(=O)n3CC(C)O)n2C)ccc1OCc1ccc(OC(F)(F)F)cc1 (stereo not shown) [Compound 82, 3-(2-hydroxypropyl)-8-(3-methoxy-4-((4-(trifluoromethoxy)benzyl)oxy)phenyl)-7-methyl-3,7-dihydro-1H-purine-2,6-dione]
100 to 500 nM | 100 to 500 nM | COc1cc(-c2nc3c(c(=O)[nH]c(=O)n3CC(C)O)n2C)ccc1OCc1ccc(OC(F)F)cc1 (stereo not shown) [Compound 85, 8-(4-((4-(difluoromethoxy)benzyl)oxy)-3-methoxyphenyl)-3-(2-hydroxypropyl)-7-methyl-3,7-dihydro-1H-purine-2,6-dione]
100 to 500 nM | 100 to 500 nM | COc1cc(-c2nc3c(c(=O)[nH]c(=O)n3CC(C)O)n2C)ccc1OCc1ccc(C(F)F)cc1 (stereo not shown) [Compound 86, 8-(4-((4-(difluoromethyl)benzyl)oxy)-3-methoxyphenyl)-3-(2-hydroxypropyl)-7-methyl-3,7-dihydro-1H-purine-2,6-dione]
500 to 1000 nM | 100 to 500 nM | COc1cc(-c2nc3c(c(=O)[nH]c(=O)n3CC(C)O)n2C)ccc1OCc1ccc(F)cc1 (stereo not shown) [Compound 87, 8-(4-((4-fluorobenzyl)oxy)-3-methoxyphenyl)-3-(2-hydroxypropyl)-7-methyl-3,7-dihydro-1H-purine-2,6-dione]
100 to 500 nM | 100 to 500 nM | COc1cc(-c2nc3c(c(=O)[nH]c(=O)n3CC(C)O)n2C)ccc1OCc1ccc(Cl)cc1 (stereo not shown) [Compound 88, 8-(4-((4-chlorobenzyl)oxy)-3-methoxyphenyl)-3-(2-hydroxypropyl)-7-methyl-3,7-dihydro-1H-purine-2,6-dione]
500 to 1000 nM | 100 to 500 nM | COc1cc(-c2nc3c(c(=O)[nH]c(=O)n3CC(C)O)n2C)ccc1OCc1ccc(C(F)(F)F)cc1 (stereo not shown) [Compound 89, 3-(2-hydroxypropyl)-8-(3-methoxy-4-((4-(trifluoromethyl)benzyl)oxy)phenyl)-7-methyl-3,7-dihydro-1H-purine-2,6-dione]
100 to 500 nM | 500 to 1000 nM | COc1cc(-c2nc3c(c(=O)[nH]c(=O)n3CC(C)O)n2C)ccc1OCc1ccc(C#N)cc1 (stereo not shown) [Compound 90, 4-((4-(3-(2-hydroxypropyl)-7-methyl-2,6-dioxo-2,3,6,7-tetrahydro-1H-purin-8-yl)-2-methoxyphenoxy)methyl)benzonitrile]
100 to 500 nM | 100 to 500 nM | CC(O)Cn1c(=O)[nH]c(=O)c2c1nc(-c1ccc(OCc3ccc(F)cc3)c(Cl)c1)n2C (stereo not shown) [Compound 91, 8-(3-chloro-4-((4-fluorobenzyl)oxy)phenyl)-3-(2-hydroxypropyl)-7-methyl-3,7-dihydro-1H-purine-2,6-dione]
100 to 500 nM | 100 to 500 nM | Cc1ccc(COc2ccc(-c3nc4c(c(=O)[nH]c(=O)n4CC(O)CF)n3C)cc2F)cc1 (stereo not shown) [Compound 96, 3-(3-fluoro-2-hydroxypropyl)-8-(3-fluoro-4-((4-methylbenzyl)oxy)phenyl)-7-methyl-3,7-dihydro-1H-purine-2,6-dione]
100 to 500 nM | 100 to 500 nM | Cc1ccc(COc2ccc(-c3nc4c(c(=O)[nH]c(=O)n4CC(C)CO)n3C)cc2F)cc1 (stereo not shown) [Compound 97, 8-(3-fluoro-4-((4-methylbenzyl)oxy)phenyl)-3-(3-hydroxy-2-methylpropyl)-7-methyl-3,7-dihydro-1H-purine-2,6-dione]
100 to 500 nM | 100 to 500 nM | CC(O)Cn1c(=O)[nH]c(=O)c2c1nc(-c1ccc(OCc3ccccc3)c(C(F)(F)F)c1)n2C (stereo not shown) [Compound 98, 8-(4-(benzyloxy)-3-(trifluoromethyl)phenyl)-3-(2-hydroxypropyl)-7-methyl-3,7-dihydro-1H-purine-2,6-dione]
